Source: ChEMBL document CHEMBL1201862, “PubChem BioAssay data set” (2004)
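Five concentrations, 48 hours, 96-well plates. GI50: concentration for 50% inhibition of growth.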 Activity calls are given as the source filed them. No stated cut-off is given here; in the data, active = GI50 up to about 1.1 µM and inactive = higher.

How the values were obtained:
Assay in all cases: NCI tumour cell line growth inhibition, 48 h
PC-3 = test system: PC-3
M14 = test system: M14
SNB-75 = test system: SNB-75
HL-60 = test system: HL-60
KM12 = test system: KM12
COLO 205 = test system: COLO 205
RXF 393 = test system: RXF 393
NCI-H226 = test system: NCI-H226
Malme-3M = test system: Malme-3M
U-251 = test system: U-251
UACC-257 = test system: UACC-257
OVCAR-3 = test system: OVCAR-3
786-0 = test system: 786-0
Hs-578T = test system: Hs-578T
ACHN = test system: ACHN
EKVX = test system: EKVX
SR = test system: SR
BT-549 = test system: BT-549
MDA-MB-231 = test system: MDA-MB-231
K562 = test system: K562
SK-OV-3 = test system: SK-OV-3
SW-620 = test system: SW-620
OVCAR-4 = test system: OVCAR-4
HCT-116 = test system: HCT-116
CCRF-CEM = test system: CCRF-CEM
SK-MEL-2 = test system: SK-MEL-2
DU-145 = test system: DU-145
T47D = test system: T47D
HT-29 = test system: HT-29
SK-MEL-28 = test system: SK-MEL-28
TK-10 = test system: TK-10
NCI-H460 = test system: NCI-H460
HCT-15 = test system: HCT-15
MDA-MB-435 = test system: MDA-MB-435
MOLT-4 = test system: MOLT-4
CAKI-1 = test system: CAKI-1
OVCAR-8 = test system: OVCAR-8
NCI/ADR-RES = test system: NCI/ADR-RES
OVCAR-5 = test system: OVCAR-5
RPMI-8226 = test system: RPMI-8226
SF-295 = test system: SF-295
SNB-19 = test system: SNB-19
HOP-62 = test system: HOP-62
SN12C = test system: SN12C
LOX IMVI = test system: LOX IMVI
HOP-92 = test system: HOP-92
SF-539 = test system: SF-539
NCI-H522 = test system: NCI-H522
SF-268 = test system: SF-268
UO-31 = test system: UO-31
A549 = test system: A549
SK-MEL-5 = test system: SK-MEL-5
IGROV-1 = test system: IGROV-1
NCI-H23 = test system: NCI-H23
A498 = test system: A498
HCC 2998 = test system: HCC 2998
UACC-62 = test system: UACC-62
MCF7 = test system: MCF7
MDA-N = test system: MDA-N

With O=c1[nH]ncc2[nH]c3c(c12)CCc1ccccc1-3 the GI50 (PC-3) was 27.2 µM (inactive), the GI50 (M14) was 44.3 µM (inactive) and the GI50 (SNB-75) was 13 µM (inactive). For the same compound, the GI50 (HL-60) was 24.7 µM (inactive), the GI50 (KM12) was 28.2 µM (inactive) and the GI50 (COLO 205) was 13.2 µM (inactive). The GI50 (RXF 393) was 16.6 µM (inactive), the GI50 (NCI-H226) was 13.5 µM (inactive) and the GI50 (Malme-3M) was 32.9 µM (inactive). For the same compound, the GI50 (U-251) was 31.6 µM (inactive), the GI50 (UACC-257) was 45.6 µM (inactive) and the GI50 (OVCAR-3) was 28.2 µM (inactive). The GI50 (786-0) was 36.1 µM (inactive), the GI50 (Hs-578T) was 10.4 µM (inactive) and the GI50 (ACHN) was 32.1 µM (inactive). For the same compound, the GI50 (EKVX) was 2.22 µM (inactive), the GI50 (SR) was 19.1 µM (inactive) and the GI50 (BT-549) was 35.5 µM (inactive). The GI50 (MDA-MB-231) was 37.9 µM (inactive), the GI50 (K562) was 28.9 µM (inactive) and the GI50 (SK-OV-3) was 24.6 µM (inactive). For the same compound, the GI50 (SW-620) was 34.4 µM (inactive), the GI50 (OVCAR-4) was 32.1 µM (inactive) and the GI50 (HCT-116) was 24.7 µM (inactive). The GI50 (CCRF-CEM) was 31.5 µM (inactive), the GI50 (SK-MEL-2) was 23 µM (inactive) and the GI50 (DU-145) was 38 µM (inactive). For the same compound, the GI50 (T47D) was 25.2 µM (inactive), the GI50 (HT-29) was 29.9 µM (inactive) and the GI50 (SK-MEL-28) was 39.9 µM (inactive). For the same compound, the GI50 (TK-10) was 27.6 µM (inactive), the GI50 (NCI-H460) was 28.2 µM (inactive) and the GI50 (HCT-15) was 30.8 µM. For the same compound, the GI50 (MDA-MB-435) was 24.9 µM (inactive), the GI50 (MOLT-4) was 24.3 µM (inactive) and the GI50 (CAKI-1) was 21.5 µM (inactive). The GI50 (OVCAR-8) was 33.6 µM (inactive), the GI50 (NCI/ADR-RES) was 40.4 µM (inactive) and the GI50 (OVCAR-5) was 44.3 µM (inactive). The GI50 (RPMI-8226) was 30.1 µM (inactive), the GI50 (SF-295) was 37.8 µM (inactive) and the GI50 (SNB-19) was 54.3 µM (inactive). For the same compound, the GI50 (HOP-62) was 45.9 µM (inactive), the GI50 (SN12C) was 36.5 µM (inactive) and the GI50 (LOX IMVI) was 22.5 µM (inactive). The GI50 (HOP-92) was 30.9 µM (inactive), the GI50 (SF-539) was 18.5 µM (inactive) and the GI50 (NCI-H522) was 21.5 µM (inactive). The GI50 (SF-268) was 32.1 µM (inactive), the GI50 (UO-31) was 30.2 µM (inactive) and the GI50 (A549) was 29 µM (inactive). For the same compound, the GI50 (SK-MEL-5) was 11 µM (inactive), the GI50 (IGROV-1) was 14.7 µM (inactive) and the GI50 (NCI-H23) was 39.4 µM (inactive). The GI50 (A498) was 27.7 µM (inactive).
In the case of FC(F)(Sc1ccccn1)c1nc2ccccc2o1, the GI50 (PC-3) was > 100 µM (inactive), the GI50 (M14) was > 100 µM (inactive) and the GI50 (KM12) was > 100 µM (inactive). For the same compound, the GI50 (COLO 205) was > 100 µM (inactive), the GI50 (RXF 393) was > 100 µM (inactive) and the GI50 (NCI-H226) was > 100 µM (inactive). For the same compound, the GI50 (Malme-3M) was > 100 µM (inactive), the GI50 (U-251) was 38.6 µM (inactive) and the GI50 (UACC-257) was > 100 µM (inactive). For the same compound, the GI50 (OVCAR-3) was 61.4 µM (inactive), the GI50 (786-0) was > 100 µM (inactive) and the GI50 (ACHN) was > 100 µM (inactive). For the same compound, the GI50 (HCC 2998) was > 100 µM (inactive), the GI50 (UACC-62) was > 100 µM (inactive) and the GI50 (SR) was > 100 µM (inactive). The GI50 (BT-549) was 64.1 µM (inactive), the GI50 (MDA-MB-231) was > 100 µM (inactive) and the GI50 (K562) was 60.5 µM (inactive). For the same compound, the GI50 (SK-OV-3) was > 100 µM (inactive), the GI50 (SW-620) was > 100 µM (inactive) and the GI50 (OVCAR-4) was > 100 µM (inactive). For the same compound, the GI50 (HCT-116) was 62.2 µM (inactive), the GI50 (CCRF-CEM) was 65.2 µM (inactive) and the GI50 (SK-MEL-2) was > 100 µM (inactive). For the same compound, the GI50 (MCF7) was 55.2 µM (inactive), the GI50 (DU-145) was > 100 µM (inactive) and the GI50 (T47D) was > 100 µM (inactive). For the same compound, the GI50 (HT-29) was > 100 µM (inactive), the GI50 (SK-MEL-28) was > 100 µM (inactive) and the GI50 (TK-10) was > 100 µM (inactive). For the same compound, the GI50 (NCI-H460) was > 100 µM (inactive), the GI50 (HCT-15) was 55.7 µM and the GI50 (MDA-MB-435) was > 100 µM (inactive). The GI50 (MOLT-4) was > 100 µM (inactive), the GI50 (CAKI-1) was > 100 µM (inactive) and the GI50 (OVCAR-8) was > 100 µM (inactive). The GI50 (NCI/ADR-RES) was 85.3 µM (inactive), the GI50 (OVCAR-5) was > 100 µM (inactive) and the GI50 (RPMI-8226) was > 100 µM (inactive). For the same compound, the GI50 (SF-295) was > 100 µM (inactive), the GI50 (HOP-62) was > 100 µM (inactive) and the GI50 (SN12C) was > 100 µM (inactive). The GI50 (HOP-92) was 76.6 µM (inactive), the GI50 (SF-539) was > 100 µM (inactive) and the GI50 (NCI-H522) was > 100 µM (inactive). For the same compound, the GI50 (SF-268) was > 100 µM (inactive), the GI50 (MDA-N) was > 100 µM (inactive) and the GI50 (UO-31) was 69.7 µM (inactive). For the same compound, the GI50 (A549) was > 100 µM (inactive), the GI50 (SK-MEL-5) was > 100 µM (inactive) and the GI50 (IGROV-1) was > 100 µM (inactive). The GI50 (NCI-H23) was > 100 µM (inactive) and the GI50 (A498) was 38.7 µM (inactive).
